Earlier results in patent US8580245B2, “Compositions and methods for treating and preventing cardiomyopathy and heart disease” (The Regents of the University of Michigan, priority 2005, dated 2013).

Test system: elderly men with isolated diastolic dysfunction
Details: verapamil vs placebo, 20 elderly men, p<0.05

Q: What does the source list for `COc1ccc(CCN(C)CCCC(C#N)(c2ccc(OC)c(OC)c2)C(C)C)cc1OC` (stereo not shown) [verapamil]?
A: exercise time increase: 33%; heart rate decrease: 10%; peak left ventricular filling rate increase: 30%; symptoms: improved
